Experimental data as given in patent US20090082304A1, “Methods of Treating Hematological Malignancies with Nucleoside Analog Drugs” (NORTHWESTERN UNIVERSITY, priority 2004, published 2009).

How the values were obtained:
Format in all cases: cell-based
MEK1/2 = assay: Immunoblot of phospho-MEK1/2 in MM.1 S cells; conditions: 10 μM, 0-6 hours
Procedure: (§1) 5×10^6 were cells treated with 10 μM 8-NH2-Ado for the indicated times and harvested. Cell pellets were washed with cold phosphate-buffered saline (PBS; 8.1 g NaCl, 1.14 g Na2HPO4, 0.22 g KCl, and 0.25 g/L KH2PO4) and incubated with lysis buffer (50 mM HEPES, 150 mM NaCl, 1.5 mM MgCl2, 1 mM EDTA pH 8.0, 100 mM NaFI, 10 mM Na Pyrophosphate, 500 μM PMSF, 0.5% Triton X-100, 10% glycerol) at 4° C. for one hour. Lysates were centrifuged at 4° C. for 1 minute at 9000×g, and the supernatants were collected and stored at −20° C. Protein concentration was determined by Bio-Rad protein assay (BioRad Laboratories, Hercules, Calif.). Protein, at a concentration of 30 μg, was mixed with sample buffer (125 mM Tris, pH 6.8, 4% SDS, 20% glycerol, 100 mM Dithiothreitol (DTT), and 0.05% bromophenol blue), and fractionated on a pre-cast 8-16% Tris-Glycine gel (Invitrogen/Novex, Carlsbad, Calif.). Proteins were then transferred to a Polyvinylidene Fluoride (PVDF) membrane (Immobilon-P, Millipore, Bedford, Mass.): Following protein transfer, membranes were blocked with 5% non-fat milk in PBS-T (PBS with 0.1% Tween), incubated with the primary antibody overnight at 4° C. and subsequently with horseradish peroxidase linked secondary antibody (Amersham, Arlington Heights, Ill.). […]

ERK1/2 = assay: Immunoblot of phospho-ERK1/2 in MM.1 S cells; conditions: 10 μM
Procedure: 5×10^6 were cells treated with 10 μM 8-NH2-Ado for the indicated times and harvested. Cell pellets were washed with cold phosphate-buffered saline (PBS; 8.1 g NaCl, 1.14 g Na2HPO4, 0.22 g KCl, and 0.25 g/L KH2PO4) and incubated with lysis buffer (50 mM HEPES, 150 mM NaCl, 1.5 mM MgCl2, 1 mM EDTA pH 8.0, 100 mM NaFI, 10 mM Na Pyrophosphate, 500 μM PMSF, 0.5% Triton X-100, 10% glycerol) at 4° C. for one hour. Lysates were centrifuged at 4° C. for 1 minute at 9000×g, and the supernatants were collected and stored at −20° C. Protein concentration was determined by Bio-Rad protein assay (BioRad Laboratories, Hercules, Calif.). Protein, at a concentration of 30 μg, was mixed with sample buffer (125 mM Tris, pH 6.8, 4% SDS, 20% glycerol, 100 mM Dithiothreitol (DTT), and 0.05% bromophenol blue), and fractionated on a pre-cast 8-16% Tris-Glycine gel (Invitrogen/Novex, Carlsbad, Calif.). Proteins were then transferred to a Polyvinylidene Fluoride (PVDF) membrane (Immobilon-P, Millipore, Bedford, Mass.): Following protein transfer, membranes were blocked with 5% non-fat milk in PBS-T (PBS with 0.1% Tween), incubated with the primary antibody overnight at 4° C. and subsequently with horseradish peroxidase linked secondary antibody (Amersham, Arlington Heights, Ill.). Blots were developed using ECL Plus Chemiluminescent Western Blotting Detection reagent (Amersham, Arlington Heights, Ill.) and the signal was visualized with X-ray film (Hyperfilm, Amersham, Arlington Heights, Ill.). For reprobing purposes, blots were stripped using Restore Western Blot Stripping Buffer from Pierce Biotechnology (Rockford, Ill.). Phospho-MKK3/6 (Ser189/207), phospho-p38 (Thr180/Tyr182), phospho-ATF-2 (Thr69/71), phospho-c-Raf (Ser259), phospho-MEK1/2 (Ser217/221), total MEK1/2, phospho-ERK1/2 (Thr202/Tyr204), total ERK1/2, phospho-p90RSK (Ser380), total RSK, phospho-PDK1 (Ser241), total PDKI, phospho-PTEN (Ser380), total PTEN, phospho-Akt (Ser473), total Akt, phospho-GSK-3β (Ser9), total GSK-3β, phospho-FKHRLI (Thr32)/-FKHR (Thr24), phospho-FKHR (Ser256) primary antibodies were obtained from Cell Signaling Technology (Beverly, Mass.). Total MKK3, total MKK6, total p38, total ATF-2, total c-Raf, total FKHR, total FKHRLI, phospho-JNK and total JNK were purchased from Santa Cruz Biotechnology (Santa Cruz, Calif.). Caspase 3, caspase 9, and PARP antibodies were obtained from Pharmingen (San Diego, Calif.) and anti-MKP1 from Upstate (Lake Placid, N.Y.). Anti-caspase 8 mouse serum was a generous gift of Dr. Marcus Peter (University of Chicago).
MM.1 S cells were exposed to 10 μM 8-NH2-Ado for 0, 0.5, 1, 2, 4 and 6 hours, after which cells were lysed as previously (Example 2). 30 μg of protein was separated by gel electrophoresis, transferred to PVDF membrane, and probed with phosphorylation-specific antibodies to MKK3/6, p38 MAPK, ATF-2, MEK1/2, ERK1/2, p90RSK, JNK1, PDK1, Akt, FKHRL1 and GSK-3β.
MM. I S cells were treated with 10 μM 8-chloro-adenosine for 0, 0.5, 1, 2, 4 or 6 hours or 10 μM of cytarabine, fludarabine, gemcitabine or 8-amino-adenosine for 4 hours. Cells were lysed as previously described and 30 μg of protein was separated by gel electrophoresis, transferred to PVDF membrane, and probed with phospho-p38 MAPK (Thr180/Tyr182) antibody.
MM.1 S cells were grown in dextrose-free media and treated with 2 μM Antimycin A, 5 mM 2-DOG, and varying concentrations of dextrose for 90 minutes. Cellular ATP levels were determined using triplicate samples in a luciferase based assay and are expressed here as a percentage of untreated control.

JNK = assay: Immunoblot of phospho-JNK in MM.1 S cells; conditions: 10 μM, 0-6 hours
Procedure: as §1

[1] = system: p38 in RPMI-8226, MDR10V and MM.1 R cells; assay: Phosphorylation of p38 in additional myeloma cell lines; conditions: data not shown
Procedure: as §1, with “Calif.).” for “Calif.). Proteins were then transferred to a Polyvinylidene Fluoride (PVDF) membrane (Immobilon-P, Millipore, Bedford, Mass.): Following protein transfer, membranes were blocked with 5% non-fat milk in PBS-T (PBS with 0.1% Tween), incubated with the primary antibody overnight at 4° C. and subsequently with horseradish peroxidase linked secondary antibody (Amersham, Arlington Heights, Ill.).”
The effect of 8-NH2-Ado treatment on phosphorylation levels was assessed in additional myeloma cell lines, to determine whether the drug-induced alterations in protein phosphorylation occur in multiple cells lines or are limited to the MM.1 S myeloma cell line.

MM cells = system: MM cells
Procedure: The MTS assay was performed as described previously (Krett et al., Clin Cancer Res. 3: 1781-1787). Briefly, MM cells were cultured into 96 well dishes at a concentration of 25,000 cells per well and incubated with the 8-NH2-Ado for 72 hours. Cell proliferation was determined using the MTS Cell Titer Aqueous assay (Promega, Madison, Wis.), which measured the conversion of a tetrazolium compound into formazan by a mitochondrial dehydrogenase enzyme in live cells. The quantity of formazan product as measured by the amount of 490 nm absorbance is directly proportional to the number of living cells in culture. The data were expressed as the percentage of formazan produced by the cells treated with the control medium in the same assay.

MKP1 = assay: Immunoblot of MKP1 in MM.1 S cells; conditions: 10 μM, 0-6 hours
Procedure: as §1, with “Calif.).” for “Calif.). Proteins were then transferred to a Polyvinylidene Fluoride (PVDF) membrane (Immobilon-P, Millipore, Bedford, Mass.): Following protein transfer, membranes were blocked with 5% non-fat milk in PBS-T (PBS with 0.1% Tween), incubated with the primary antibody overnight at 4° C. and subsequently with horseradish peroxidase linked secondary antibody (Amersham, Arlington Heights, Ill.).”
One possible mechanism for the decrease in phosphorylation of the kinase molecules and their substrates is an increase in the activity of the phosphatase(s) that regulate them. To test this hypothesis, levels of MKPI, a dual specificity phosphatase that can act to dephosphorylate p38 MAPK, were assessed MM.1 S cells were exposed to 10 μM 8-NH2-Ado for 0, 0.5, 1, 2, 4 and 6 hours after which cells were lysed as previously described. […]

STAT proteins = assay: Phosphorylation status of STAT proteins

## Nc1ncnc2c1nc(N)n2[C@@H]1O[C@H](CO)[C@@H](O)[C@H]1O [8-NH2-Ado, 8-amino-adenosine]
MEK1/2
  phosphorylation levels of MEK1/2: appear to increase
ERK1/2; 4 hours, data not shown
  phosphorylation of ERK1/2: dramatic loss of phosphorylation
ERK1/2; by 30 minutes
  Phosphorylation of the ERK1/2 kinases: decreases significantly
ERK1/2; by 2 hours
  Phosphorylation of the ERK1/2 kinases: declines to negligible levels
JNK
  JNK phosphorylation: unaffected
[1]
  Phosphorylation levels of p38: decrease in a dose-dependent manner
MM cells
  cytotoxicity: cytotoxic
  effect on normal versus malignant cells: differential effect
MKP1
  MKP1 levels: unaltered
STAT proteins
  phosphorylation status of the STAT proteins: unaltered
